In one test the test system is zebrafish embryos. Put plainly: Zebrafish response (anaesthesia) assay, touch response/swim behaviour. To be noted: Danio rerio, 1.5 h; complete anaesthesia (scale 1) in 50% of AB wild type embryos (54 hpf), 90 min at 28° C. Type of test: in vivo. An excerpt:
Briefly, the ZEA assay involves applying essential oils, fractions or individual compounds to developmentally staged zebrafish embryos followed by monitoring of embryonic touch response/swim behaviour and evaluation of the dose response relationship for each substance. Using a four point scale to describe the embryonic behaviours (Table 4), initial analysis focused on monitoring and recording these changes and evaluating the level of bioactivity. The effective concentration to generate complete anaesthesia in 50% of the embryos (EC50), were evaluated as follows:
Compounds are tested on developmentally staged AB “wild type” zebrafish embryos (54 hpf+/−2 hpf) at concentrations ranging between 10 and 400 μM.
Each compound is diluted in a 95% ethanol or DMSO carrier to create a working stock solution from which appropriate dilutions are made in standard embryo E3 media.
1000 μl of each concentration or appropriate carrier control are added to 10 wild type AB embryos in a single well of a 24 well plate, in duplicate.
The embryos are incubated for 90 min at 28° C. (optimal temperature for embryonic growth) in the diluted compound.
A four point scale (Table 4) is used to evaluate the touch response and swim behaviour for each embryo in all wells.
The effectiveness of the compound will be based on its ability to generate complete anaesthesia (scale: 1) in 50% of the embryos at a given concentration (EC50).
The EC50 values are calculated using GraphPad Prism® software to analyze the log (dose) response curves.

For test [1], the system named is voltage-gated Na+ channels. As to the kind of experiment: Sodium (Na+) channel analysis in rat DRG neurons using whole cell patch-clamp. Type of test: cell-based. Particulars: Na+ currents in isolated rat DRG neurons, 3 min in presence of drug, read-out: IC50 range. The protocol: Isolated DRG neurons were suspended in primary neuron basal media and placed on glass coverslips for incubation in humidified atmosphere of 5% CO2 at 37° C. Coverslips carrying cells was transferred to the bath of an inverted microscope (Zeiss), continuously perfused with oxygenated artificial cerebro-spinal fluid (ACSF) containing (in mM) 124 NaCl, 2.5 KCl, 2 CaCl2, 1 MgSO4, 25 NaHCO3, 1 NaH2PO4, and 10 glucose, at a rate of 2-3 ml/min. Recording of whole-cell membrane currents were made at room temperature. Recording pipette (4-6 MS2) was filled with internal solution containing (in mM) 145 K-gluconate, 5 NaCl, 1 MgCl2, 0.2 EGTA, 10 HEPES, 2 Mg-ATP, 0.1 Na-GTP, and 10 phosphocreatine. To isolate Na^+ currents, DRG neurons were superfused with ACSF containing tetraethylammonium chloride (TEA) 5 mM, cesium chloride (CsCl) 100 μM and cadmium chloride (CdCl) 1 mM, to block potassium and calcium currents. NQ compounds were freshly dissolved in ASCF containing TEA, CsCl and CdCl, prior application via the bath.
For recording Na^+ currents, cells were held at −60 mV before applying a conditioning hyperpolarizing step (50 ms) to −90 mv to reactivate the voltage-gated Na^+ channels. The conditioning pulse was followed by depolarizing (150 ms) test pulses to 50 mV in 10 mV increments. Na^+ currents were recorded in absence, after 3 min in presence of the drugs and after a recovery time of 3 min.
(The patch-clamp technique gives a direct electrical read-out from membranes.)

The target in the next test is TRPV1 (Homo sapiens, UniProt Q8NER1). Put plainly: TRPV1 assay, calcium imaging. Type of test: cell-based. The protocol: Briefly, cells are seeded into poly-L-lysine-coated, glass-bottom, 24-well plates (1×10^5 cells/well) and incubated overnight under standard culture conditions to achieve the desired confluency. Culture media is removed and cells washed twice with HBS prior to incubation for 15 to 60 min at 37° C. with a labelling mixture comprised of Fura-2-AM and pluronic acid in HBS. Data collection occurs over an eight minute period and follows the same general sequence. Following loading, cells are stimulated by addition of 1 μM of capsaicin agonist for 2 min, after which a concentration series of the test sample (e.g., (0.5, 5, 10, 50 μg/ml) is added and imaging continued for an additional 5 min. Capsazepine (20 μM) serves as a known reference antagonist, while cells that are mock-treated or receive vehicle (e.g., DMSO) alone serve as negative controls. For imaging, plates are placed on the stage of an inverted epifluorescence microscope (e.g. Axiovert 200, Zeiss) equipped with a CCD digital camera (e.g., Axiocam MRm, Zeiss). For each well of the plate, a sequence of image pairs (excitation at 340 nm and 380 nm) are collected to capture intracellular calcium flux. Image sequences are analyzed in Image) (NIH) and average pixel intensities calculated for six representative cells in each test condition to achieve mean fluorescence.
TRPV1, sequence (Q8NER1 whole entry, species assumed): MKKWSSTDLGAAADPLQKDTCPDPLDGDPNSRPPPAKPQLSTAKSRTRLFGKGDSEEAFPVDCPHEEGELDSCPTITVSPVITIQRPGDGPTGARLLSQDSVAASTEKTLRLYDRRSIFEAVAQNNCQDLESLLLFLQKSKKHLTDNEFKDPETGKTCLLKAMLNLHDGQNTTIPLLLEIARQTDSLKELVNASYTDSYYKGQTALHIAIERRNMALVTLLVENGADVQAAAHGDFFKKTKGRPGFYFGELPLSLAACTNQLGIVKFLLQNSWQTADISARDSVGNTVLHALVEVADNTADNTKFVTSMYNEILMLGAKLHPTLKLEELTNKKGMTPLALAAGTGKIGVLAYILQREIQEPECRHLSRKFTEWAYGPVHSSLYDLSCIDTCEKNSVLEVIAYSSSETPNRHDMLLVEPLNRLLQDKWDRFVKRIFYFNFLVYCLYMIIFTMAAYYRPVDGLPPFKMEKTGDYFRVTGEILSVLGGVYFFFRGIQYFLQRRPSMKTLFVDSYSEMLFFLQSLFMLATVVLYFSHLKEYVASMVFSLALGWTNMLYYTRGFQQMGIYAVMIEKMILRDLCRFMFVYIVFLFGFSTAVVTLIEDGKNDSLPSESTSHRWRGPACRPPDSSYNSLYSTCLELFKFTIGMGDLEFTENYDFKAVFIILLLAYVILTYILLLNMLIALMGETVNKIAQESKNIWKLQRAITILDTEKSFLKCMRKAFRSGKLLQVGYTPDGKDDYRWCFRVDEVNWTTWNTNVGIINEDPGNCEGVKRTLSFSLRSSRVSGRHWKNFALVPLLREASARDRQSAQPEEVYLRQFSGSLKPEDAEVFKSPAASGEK

Where [2] appears, read: Ca2+ imaging (Fura-2-AM) after stimulation with 1 μM capsaicin.

Bounds are passed on as bounds.

Usually EC50 stands for the concentration at which the effect is half-maximal. The term IC50 denotes the concentration that inhibits the measured activity by half. `CNC(=O)C=C(C)CCC=C(C)C` [NQ 2980, N,3,7-trimethylocta-2,6-dienamide] had an EC50 with zebrafish embryos of 187 µM. In addition, the IC50 is 100 to 1000 µM in test [1] and greater than 552 µM at TRPV1 (setting [2]).

`CC(C)=CCC/C(C)=C/C=O` [NQ 2983, (E)-3,7-dimethylocta-2,6-dienal] displayed a half-maximal effective concentration (EC50) with zebrafish embryos of 113 µM. In addition, the IC50 in test [1] was 1000 to 5000 µM; on TRPV1 (setting [2]), 493 to 657 µM; at TRPV1 (FIG. 2, Ca2+ imaging in HEK-TRPV cells), 493 µM.

The values above are taken from patent US20130267571A1, “TERPENOID ANALOGUES AND USES THEREOF FOR TREATING NEUROLOGICAL CONDITIONS” (NeuroQuest Inc., priority 2010, published 2013).
